Reference: patent US20090298820A1, “3-SUBSTITUTED-1H-PYRROLO[2,3-B]PYRIDINE AND 3-SUBSTITUTED-1H-PYRROLO[3,2-B]PYRIDINE COMPOUNDS, THEIR USE AS MTOR KINASE AND PI3 KINASE INHIBITORS, AND THEIR SYNTHESES” (Wyeth, priority 2008, published 2009)

Columns and labels:
Assay type in all cases: biochemical
PI3Kα = PI3Kα (Homo sapiens, UniProt P42336); assay: PI3K-alpha fluorescence polarization assay; details: read-out: PI3Kα Median IC50
mTOR = mTOR (Homo sapiens, UniProt P42345); assay: mTOR enzyme assay (DELFIA format, His6-S6K substrate); details: read-out: mTOR Kinase Median IC50
PI3Kγ = PI3Kγ (Homo sapiens, UniProt P48736); assay: PI3K-gamma fluorescence polarization assay; details: read-out: PI3Kγ Median IC50
Chain of PI3Kγ (P48736 whole entry, species assumed): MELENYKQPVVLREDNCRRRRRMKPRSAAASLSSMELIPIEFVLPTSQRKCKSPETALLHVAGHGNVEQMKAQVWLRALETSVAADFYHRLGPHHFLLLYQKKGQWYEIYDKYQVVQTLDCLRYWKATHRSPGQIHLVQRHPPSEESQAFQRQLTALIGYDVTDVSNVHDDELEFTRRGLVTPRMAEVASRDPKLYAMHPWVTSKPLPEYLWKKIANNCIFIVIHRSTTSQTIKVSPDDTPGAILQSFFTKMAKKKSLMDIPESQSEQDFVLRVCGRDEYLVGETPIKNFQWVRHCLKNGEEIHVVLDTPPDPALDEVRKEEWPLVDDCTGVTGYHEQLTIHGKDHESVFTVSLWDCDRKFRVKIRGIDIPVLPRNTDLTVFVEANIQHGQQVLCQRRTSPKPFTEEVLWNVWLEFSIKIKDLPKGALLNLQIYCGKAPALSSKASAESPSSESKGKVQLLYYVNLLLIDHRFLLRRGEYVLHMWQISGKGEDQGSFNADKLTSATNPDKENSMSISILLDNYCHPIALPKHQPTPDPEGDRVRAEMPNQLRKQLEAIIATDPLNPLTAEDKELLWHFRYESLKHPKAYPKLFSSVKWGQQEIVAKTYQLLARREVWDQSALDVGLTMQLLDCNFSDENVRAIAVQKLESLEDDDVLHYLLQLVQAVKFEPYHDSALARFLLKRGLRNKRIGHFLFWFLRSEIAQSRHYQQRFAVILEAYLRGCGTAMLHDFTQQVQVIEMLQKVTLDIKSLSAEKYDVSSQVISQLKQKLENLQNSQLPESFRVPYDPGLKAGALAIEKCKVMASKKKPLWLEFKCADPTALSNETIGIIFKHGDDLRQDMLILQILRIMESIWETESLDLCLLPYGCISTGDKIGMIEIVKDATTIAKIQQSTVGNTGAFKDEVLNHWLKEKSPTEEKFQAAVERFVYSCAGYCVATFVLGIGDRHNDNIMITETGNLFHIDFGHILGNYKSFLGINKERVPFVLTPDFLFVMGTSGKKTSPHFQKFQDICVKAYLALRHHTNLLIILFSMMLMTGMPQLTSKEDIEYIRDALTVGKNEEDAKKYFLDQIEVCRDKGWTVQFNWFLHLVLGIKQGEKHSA

Chain of PI3Kα (P42336 whole entry, species assumed): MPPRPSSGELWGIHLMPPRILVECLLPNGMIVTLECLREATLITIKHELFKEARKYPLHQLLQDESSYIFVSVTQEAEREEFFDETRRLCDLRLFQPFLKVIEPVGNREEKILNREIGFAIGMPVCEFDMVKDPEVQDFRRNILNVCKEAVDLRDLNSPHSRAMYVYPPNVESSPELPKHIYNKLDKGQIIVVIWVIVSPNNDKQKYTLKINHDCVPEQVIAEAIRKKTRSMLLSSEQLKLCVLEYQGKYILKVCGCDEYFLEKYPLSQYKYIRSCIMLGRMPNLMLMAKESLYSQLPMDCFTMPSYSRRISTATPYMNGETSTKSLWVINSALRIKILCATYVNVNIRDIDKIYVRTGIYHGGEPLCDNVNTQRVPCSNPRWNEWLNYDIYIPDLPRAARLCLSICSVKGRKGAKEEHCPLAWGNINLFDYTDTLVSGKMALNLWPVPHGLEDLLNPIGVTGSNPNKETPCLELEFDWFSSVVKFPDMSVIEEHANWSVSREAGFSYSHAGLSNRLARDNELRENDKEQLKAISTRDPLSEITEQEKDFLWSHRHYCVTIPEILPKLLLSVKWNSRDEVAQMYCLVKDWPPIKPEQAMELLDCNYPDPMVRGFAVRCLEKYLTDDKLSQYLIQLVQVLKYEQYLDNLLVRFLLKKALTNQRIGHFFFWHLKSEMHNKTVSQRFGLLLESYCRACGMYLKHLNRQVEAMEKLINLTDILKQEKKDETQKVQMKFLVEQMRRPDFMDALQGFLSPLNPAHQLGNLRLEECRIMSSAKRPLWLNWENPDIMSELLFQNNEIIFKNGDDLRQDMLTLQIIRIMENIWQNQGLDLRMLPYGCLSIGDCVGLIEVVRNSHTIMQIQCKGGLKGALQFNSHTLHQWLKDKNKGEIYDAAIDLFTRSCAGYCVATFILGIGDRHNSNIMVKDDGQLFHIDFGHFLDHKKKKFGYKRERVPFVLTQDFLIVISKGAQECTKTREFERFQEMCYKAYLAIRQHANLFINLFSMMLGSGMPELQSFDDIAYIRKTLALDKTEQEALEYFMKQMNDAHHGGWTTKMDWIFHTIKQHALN
Chain of PI3Kα (P27986 whole entry partner, species assumed): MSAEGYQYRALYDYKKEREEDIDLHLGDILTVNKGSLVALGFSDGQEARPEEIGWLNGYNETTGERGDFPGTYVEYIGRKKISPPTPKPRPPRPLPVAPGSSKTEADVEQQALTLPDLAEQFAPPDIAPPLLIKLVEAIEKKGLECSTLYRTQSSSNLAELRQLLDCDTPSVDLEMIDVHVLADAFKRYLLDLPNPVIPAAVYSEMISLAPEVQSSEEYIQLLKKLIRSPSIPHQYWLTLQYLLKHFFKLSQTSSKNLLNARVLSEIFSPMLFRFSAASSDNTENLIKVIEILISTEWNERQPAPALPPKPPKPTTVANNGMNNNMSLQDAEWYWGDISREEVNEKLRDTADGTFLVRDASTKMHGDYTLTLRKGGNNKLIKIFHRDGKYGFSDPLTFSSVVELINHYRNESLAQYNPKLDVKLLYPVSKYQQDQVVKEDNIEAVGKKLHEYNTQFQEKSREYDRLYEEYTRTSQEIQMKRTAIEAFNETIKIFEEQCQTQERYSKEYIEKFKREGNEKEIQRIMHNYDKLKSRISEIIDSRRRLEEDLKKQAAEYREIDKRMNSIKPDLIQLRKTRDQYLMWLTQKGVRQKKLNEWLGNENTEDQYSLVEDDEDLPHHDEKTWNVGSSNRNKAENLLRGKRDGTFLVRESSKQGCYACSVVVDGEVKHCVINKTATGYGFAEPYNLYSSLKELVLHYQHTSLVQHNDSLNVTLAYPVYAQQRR

Row | Structure (SMILES) | IC50 (PI3Kα) [nM] | IC50 (mTOR) [nM] | IC50 (PI3Kγ) [nM]
1 | CN1CCN(c2ccnc3c2c(/C=C2\Oc4ccc(NC(=O)Nc5cccnc5)cc4C2=O)cn3C)CC1 [Compound 184, 1-[(2Z)-2-{[1-methyl-4-(4-methylpiperazin-1-yl)-1H-pyrrolo[2,3-b]pyridin-3-yl]methylidene}-3-oxo-2,3-dihydro-1-benzofuran-5-yl]-3-pyridin-3-ylurea] | 632 | 83 | 484
2 | Cn1cc(/C=C2\Oc3ccc(NC(=O)Nc4cccnc4)cc3C2=O)c2c(N3CCOCC3)ccnc21 [Compound 185, 1-{(2Z)-2-[(1-methyl-4-morpholin-4-yl-1H-pyrrolo[2,3-b]pyridin-3-yl)methylidene]-3-oxo-2,3-dihydro-1-benzofuran-5-yl}-3-pyridin-3-ylurea] | 275 | 71 | 348
3 | CCn1cc(/C=C2\Oc3cccc(O)c3C2=O)c2c(-c3ccc(C(=O)N4CCN(CCO)CC4)cc3)ccnc21 [Compound 186, (2Z)-2-{[1-ethyl-4-(4-{[4-(2-hydroxyethyl)piperazin-1-yl]carbonyl}phenyl)-1H-pyrrolo[2,3-b]pyridin-3-yl]methylidene}-4-hydroxy-1-benzofuran-3(2H)-one] | 445 | 4.6 | 550
4 | Cn1cc(/C=C2\Oc3cccc(O)c3C2=O)c2c(-c3ccc(S(=O)(=O)N4CCCC4)cc3)ccnc21 [Compound 190, (2Z)-4-hydroxy-2-({1-methyl-4-[4-(pyrrolidin-1-ylsulfonyl)phenyl]-1H-pyrrolo[2,3-b]pyridin-3-yl}methylidene)-1-benzofuran-3(2H)-one] | 26 | 3.5 | 80
5 | Cn1cc(/C=C2\Oc3cccc(O)c3C2=O)c2c(-c3ccc(S(=O)(=O)N4CCOCC4)cc3)ccnc21 [Compound 191, (2Z)-4-hydroxy-2-({1-methyl-4-[4-(morpholin-4-ylsulfonyl)phenyl]-1H-pyrrolo[2,3-b]pyridin-3-yl}methylidene)-1-benzofuran-3(2H)-one] | 34 | 3 | 101
6 | CONC(=O)c1ccc(-c2ccnc3c2c(/C=C2\Oc4cccc(O)c4C2=O)cn3C)cc1 [Compound 192, 4-{3-[(Z)-(4-hydroxy-3-oxo-1-benzofuran-2(3H)-ylidene)methyl]-1-methyl-1H-pyrrolo[2,3-b]pyridin-4-yl}-N-methoxybenzamide] | 26 | 1 | 39
7 | CN(CCO)C(=O)c1ccc(-c2ccnc3c2c(/C=C2\Oc4cccc(O)c4C2=O)cn3C)cc1 [Compound 195, N-(2-hydroxyethyl)-4-{3-[(Z)-(4-hydroxy-3-oxo-1-benzofuran-2(3H)-ylidene)methyl]-1-methyl-1H-pyrrolo[2,3-b]pyridin-4-yl}-N-methylbenzamide] | 140 | 4.3 | 234
8 | CON(C)C(=O)c1ccc(-c2ccnc3c2c(/C=C2\Oc4cccc(O)c4C2=O)cn3C)cc1 [Compound 196, 4-{3-[(Z)-(4-hydroxy-3-oxo-1-benzofuran-2(3H)-ylidene)methyl]-1-methyl-1H-pyrrolo[2,3-b]pyridin-4-yl}-N-methoxy-N-methylbenzamide] | 41 | 1 | 66
9 | COCCCN(C)C(=O)C1CCN(c2ccnc3c2c(C=C2Oc4ccc(NC(=O)Nc5cccnc5)cc4C2=O)cn3C)CC1 [Compound 199, N-(3-methoxypropyl)-N-methyl-1-[1-methyl-3-({3-oxo-5-[(pyridin-3-ylcarbamoyl)amino]-1-benzofuran-2(3H)-ylidene}methyl)-1H-pyrrolo[2,3-b]pyridin-4-yl]piperidine-4-carboxamide] | 2240 | 12.5 | 2990
10 | COCCCNC(=O)C1CCN(c2ccnc3c2c(C=C2Oc4ccc(NC(=O)Nc5cccnc5)cc4C2=O)cn3C)CC1 [Compound 200, N-(3-methoxypropyl)-1-[1-methyl-3-({3-oxo-5-[(pyridin-3-ylcarbamoyl)amino]-1-benzofuran-2(3H)-ylidene}methyl)-1H-pyrrolo[2,3-b]pyridin-4-yl]piperidine-4-carboxamide] | > 10000 | 4.8 | > 10000
11 | Cn1cc(C=C2Oc3ccc(NC(=O)Nc4cccnc4)cc3C2=O)c2c(N3CCC(C(=O)NCC(N)=O)CC3)ccnc21 [Compound 202, N-(2-amino-2-oxoethyl)-1-[1-methyl-3-({3-oxo-5-[(pyridin-3-ylcarbamoyl)amino]-1-benzofuran-2(3H)-ylidene}methyl)-1H-pyrrolo[2,3-b]pyridin-4-yl]piperidine-4-carboxamide] | 5900 | 4 | > 10000
12 | Cn1cc(C=C2Oc3ccc(NC(=O)Nc4cccnc4)cc3C2=O)c2c(N3CCC(C(=O)NCCN4CCCC4)CC3)ccnc21 [Compound 203, 1-[1-methyl-3-({3-oxo-5-[(pyridin-3-ylcarbamoyl)amino]-1-benzofuran-2(3H)-ylidene}methyl)-1H-pyrrolo[2,3-b]pyridin-4-yl]-N-(2-pyrrolidin-1-ylethyl)piperidine-4-carboxamide] | > 10000 | 19 | > 10000
13 | Cn1cc(C=C2Oc3ccc(NC(=O)Nc4cccnc4)cc3C2=O)c2c(N3CCC(C(=O)N4CC=CC4)CC3)ccnc21 [Compound 204, 1-[2-({4-[4-(2,5-dihydro-1H-pyrrol-1-ylcarbonyl)piperidin-1-yl]-1-methyl-1H-pyrrolo[2,3-b]pyridin-3-yl}methylidene)-3-oxo-2,3-dihydro-1-benzofuran-5-yl]-3-pyridin-3-ylurea] | 5620 | 10 | 1730
14 | CN1CCC(N(C)C(=O)C2CCN(c3ccnc4c3c(C=C3Oc5ccc(NC(=O)Nc6cccnc6)cc5C3=O)cn4C)CC2)C1 (stereo not drawn) [Compound 205, N-methyl-1-[1-methyl-3-({3-oxo-5-[(pyridin-3-ylcarbamoyl)amino]-1-benzofuran-2(3H)-ylidene}methyl)-1H-pyrrolo[2,3-b]pyridin-4-yl]-N-(1-methylpyrrolidin-3-yl)piperidine-4-carboxamide] | > 10000 | 49 | 9230
15 | CN(C(=O)C1CCN(c2ccnc3c2c(C=C2Oc4ccc(NC(=O)Nc5cccnc5)cc4C2=O)cn3C)CC1)[C@@H]1CCNC1 [Compound 206, N-methyl-1-[1-methyl-3-({3-oxo-5-[(pyridin-3-ylcarbamoyl)amino]-1-benzofuran-2(3H)-ylidene}methyl)-1H-pyrrolo[2,3-b]pyridin-4-yl]-N-[(3R)-pyrrolidin-3-yl]piperidine-4-carboxamide] | > 10000 | 47 | > 10000
16 | Cn1cc(C=C2Oc3ccc(NC(=O)Nc4cccnc4)cc3C2=O)c2c(N3CCC(C(=O)N[C@@H]4CCNC4)CC3)ccnc21 [Compound 207, 1-[1-methyl-3-({3-oxo-5-[(pyridin-3-ylcarbamoyl)amino]-1-benzofuran-2(3H)-ylidene}methyl)-1H-pyrrolo[2,3-b]pyridin-4-yl]-N-[(3R)-pyrrolidin-3-yl]piperidine-4-carboxamide] | ≥ 10000 | 16 | 4290
17 | CN(C(=O)C1CCN(c2ccnc3c2c(C=C2Oc4ccc(NC(=O)Nc5cccnc5)cc4C2=O)cn3C)CC1)[C@H]1CCNC1 [Compound 208, N-methyl-1-[1-methyl-3-({3-oxo-5-[(pyridin-3-ylcarbamoyl)amino]-1-benzofuran-2(3H)-ylidene}methyl)-H-pyrrolo[2,3-b]pyridin-4-yl]-N-[(3S)-pyrrolidin-3-yl]piperidine-4-carboxamide] | > 10000 | 50 | > 10000
18 | Cn1cc(C=C2Oc3ccc(NC(=O)Nc4cccnc4)cc3C2=O)c2c(N3CCC(C(=O)N[C@H]4CCNC4)CC3)ccnc21 [Compound 209, 1-[1-methyl-3-({3-oxo-5-[(pyridin-3-ylcarbamoyl)amino]-1-benzofuran-2(3H)-ylidene}methyl)-1H-pyrrolo[2,3-b]pyridin-4-yl]-N-[(3S)-pyrrolidin-3-yl]piperidine-4-carboxamide] | > 10000 | 26.5 | 4160
19 | CN(C)C1CCN(C(=O)C2CCN(c3ccnc4c3c(C=C3Oc5ccc(NC(=O)Nc6cccnc6)cc5C3=O)cn4C)CC2)C1 (stereo not drawn) [Compound 210, 1-(2-{[4-(4-{[3-(dimethylamino)pyrrolidin-1-yl]carbonyl}piperidin-1-yl)-1-methyl-1H-pyrrolo[2,3-b]pyridin-3-yl]methylidene}-3-oxo-2,3-dihydro-1-benzofuran-5-yl)-3-pyridin-3-ylurea] | > 10000 | 11 | 2180
20 | CN(C(=O)C1CCN(c2ccnc3c2c(C=C2Oc4ccc(NC(=O)Nc5cccnc5)cc4C2=O)cn3C)CC1)C1CCS(=O)(=O)C1 (stereo not drawn) [Compound 211, N-(1,1-dioxidotetrahydrothiophen-3-yl)-N-methyl-1-[1-methyl-3-({3-oxo-5-[(pyridin-3-ylcarbamoyl)amino]-1-benzofuran-2(3H)-ylidene}methyl)-1H-pyrrolo[2,3-b]pyridin-4-yl]piperidine-4-carboxamide] | > 10000 | 11.5 | > 10000
21 | Cn1cc(C=C2Oc3ccc(NC(=O)Nc4cccnc4)cc3C2=O)c2c(N3CCC(C(=O)NC4CCS(=O)(=O)C4)CC3)ccnc21 (stereo not drawn) [Compound 212, N-(1,1-dioxidotetrahydrothiophen-3-yl)-1-[1-methyl-3-({3-oxo-5-[(pyridin-3-ylcarbamoyl)amino]-1-benzofuran-2(3H)-ylidene}methyl)-1H-pyrrolo[2,3-b]pyridin-4-yl]piperidine-4-carboxamide] | 7450 | 5.7 | 5230
22 | CN(C(=O)C1CCN(c2ccnc3c2c(C=C2Oc4ccc(NC(=O)Nc5cccnc5)cc4C2=O)cn3C)CC1)C1CCOCC1 [Compound 213, N-methyl-1-[1-methyl-3-({3-oxo-5-[(pyridin-3-ylcarbamoyl)amino]-1-benzofuran-2(3H)-ylidene}methyl)-1H-pyrrolo[2,3-b]pyridin-4-yl]-N-(tetrahydro-2H-pyran-4-yl)piperidine-4-carboxamide] | 8360 | 18.9 | 7220
